Test results reported in paper PMC2607543, “Peptides Derived from HIV-1 Integrase that Bind Rev Stimulate Viral Genome Integration” (PLoS ONE, 2009).
Where no end group is shown, it is not given here.

How the values were obtained:
[1] = test system: viral Gag or Nef DNA sequences; assay type: cell-based, HIV-1; details: INr 12.5 µM or AZT 2 µM, 2 h before infection, 6 h after; Gag (A) or Nef (B) PCR; Fig 8A and B
[2] = test system: HIV-1 in Sup-T1 cells; experiment: Time-of-addition assay, viral p24 in Sup-T1 cells; assay type: cell-based; details: MOI 2; dextran sulfate 20 µM, AZT 2 µM, LEDGF 402–411 12.5 µM; p24 at 48 h PI; Fig 8C
Method: Figure 8 Virus-cell adsorption and viral reverse-transcriptase activity are not affected by the INr peptides. (A and B) Estimation of viral DNA in virus-infected cells: Sup-T1 cells were incubated with the indicated peptides or with AZT for 2 h and then were infected with HIV. Following another 6 h incubation, the viral Gag (A) or Nef (B) DNA sequences were amplified using specific primers. The reaction was terminated after 30 cycles. Lanes: 1) INr-1 (12.5 µM); 2) INr-2 (12.5 µM); 3) AZT (2 µM); 4) untreated cells; 5) uninfected cells. […] (C) Influence of the time of addition on P24 production: Sup-T1 cells were infected with HIV-1 at a MOI of 2, and the indicated constituents were added at different time points PI (0, 2, 4,…, 24 h). Viral p24 was determined at 48 h PI. No addition (Blue X); no virus (Gray diamond); dextran sulfate 20 µM (Brown asterisk); AZT 2 µM (Red empty circle); INr-1 12.5 µM (Green diamond); INr-2 12.5 µM (Magenta square); LEDGF 402–411 (Black full circle).
Sup T1 cells were infected with wild-type HIV-1 at a MOI of 2, and the test compounds were added at different time points after infection (0, 2, 4,…, 24 h). Viral p24 production was determined at 48 h PI [59]. Dextran sulfate was tested at 20 µM, AZT at 2 µM, LEDGF 402-411, INr-1 and INr-2 at 12.5 µM.

[3] = test system: HeLa TZM-bl cells; experiment: MTT cell toxicity assay, HeLa TZM-bl; assay type: cell-based; details: up to about 62 µM, Fig 4B
Method: (§1) Figure 4 Cell penetration and toxicity of INr peptides. (A) Fluorescein-labeled INr-1, INr-2, and IN-3 (a known nonpermeable peptide) each at 10 µM, were incubated for 2 h at 37°C with HeLa cells. The cells were then washed three times with PBS and visualized by confocal microscopy. (B) Cell toxicity was determined by MTT assay in HeLa TZM-bl cells. (C) Same as (B) but in H9 lymphocytes. Experimental conditions are described in Materials and Methods.
(§2) Following incubation of the cells with the indicated peptides, the medium was removed and the cells were further incubated in Earl's solution containing 0.3 mg/ml MTT for 1 h. Subsequently, the solution was removed and the cells were dissolved in 100 µl DMSO for 10 min at room temperature. The DMSO-solubilized cells were transferred to a 96-well ELISA plate and OD values were monitored at a wavelength of 570 nm.

[4] = test system: H9 lymphocytes; experiment: MTT cell toxicity assay, H9; assay type: cell-based; details: up to about 62 µM, Fig 4C
Method: as §1, §2

[5] = test system: HIV-1 IN; details: ref [36]; cited from earlier work
Method: Dextran sulfate, various peptides and AZT were added at different times to HIV-1 infected Sup-T1 cells and the amount of viral P24 protein—reflecting efficiency of virus infection—was estimated at 48 h PI.

[6] = test system: HIV-1 infected cells; experiment: Cell death and syncytia formation in infected, INr-treated cells; assay type: cell-based; details: combination of the peptide and the virus; not shown

Compound | Time of addition post infection up to which infection is inhibited [2] | Toxic effect, HeLa TZM-bl cells [3] | Toxic effect, H9 T-cell lymphocytes [4] | other results
Cc1cn([C@H]2C[C@H](N=[N+]=[N-])[C@@H](CO)O2)c(=O)[nH]c1=O [AZT, azidothymidine] | ≤ 10 h |  |  | Effect on reverse transcription / reverse-transcribed viral DNA [1]: reverse-transcribed viral DNA is absent
CC[C@H](C)[C@H](NC(=O)[C@H](CCCCN)NC(=O)CNC(=O)[C@H](CCC(=O)O)NC(=O)[C@H](CC(C)C)NC(=O)[C@H](Cc1c[nH]cn1)NC(=O)[C@@H](NC(=O)[C@@H](N)Cc1c[nH]c2ccccc12)[C@@H](C)O)C(=O)N[C@H](C(=O)N[C@@H](CC(C)C)C(=O)N[C@H](C(=O)N[C@@H](C)C(=O)N[C@H](C(=O)N[C@@H](Cc1c[nH]cn1)C(=O)N[C@H](C(=O)N[C@@H](C)C(=O)O)C(C)C)C(C)C)C(C)C)[C@@H](C)CC [INr-1] |  | No toxic effect | No toxic effect | 
LEDGF 402–411: LEDGF-derived peptide (aa 402–411) which has been shown to block viral IN enzymatic activity (KIRRFKVSQV; UniProt O75475 402-411, looked up, fragment) | about 18 h |  |  | Inhibition of IN enzymatic activity by LEDGF-derived peptides [5]: block viral IN enzymatic activity in vitro and in vivo
WGSNFTSTTVKA [INr-2] |  | No toxic effect | No toxic effect | Cell death and syncytia formation with peptide and virus [6]: increase in cell death and syncytia formation
dextran sulfate | ≤ 4 h |  |  | 
